Patent US20190315711A1 (eXIthera Pharmaceuticals, Inc., priority 2016, published 2019)

Assays:
[1] = Metabolic stability in dog hepatocytes; type: in vitro ADME; details: pooled cryopreserved hepatocytes; beagle dog hepatocytes, 2 μM compound, 500,000 cells/mL, 37° C.; read-out: Dog Hepatocyte Stability (T½: min)
Method: The following procedure was used to determine the stability of test compounds in beagle dog hepatocytes in a 96-well plate format. The test compounds, including the controls, imipramine and 7-ethoxycoumarin, were dissolved at 10 mM in DMSO, followed by further 5-fold dilution with DMSO to 2 mM. Pooled cryopreserved beagle dog hepatocytes were thawed and transferred into complete medium. Cells were gently centrifuged (700 rpm for 5 min) and the pellet rinsed with KHB (Krebs Henseleit buffer). Cells were resuspended, counted using Trypan blue, and adjusted to 1 million cells/mL in KHB buffer. The 2 mM compound stock solutions were diluted 10-fold with acetonitrile, followed by a further 50-fold dilution with KHB buffer. 200 μL of these compound solutions were transferred to 96-well polypropylene assay plates and an equal volume of the hepatocyte solution was added and mixed to initiate the reaction (final assay concentrations were 2 μM compound and 500,000 cells/mL). Assay plates were incubated at 37° C. in 5% CO2 with gentle agitation. 50 μL aliquots were removed at multiple time points out to 180 minutes and quenched with 6 volumes of cold acetonitrile (containing 250 ng/mL of carbutamide and chrysin as internal standards) to terminate the reaction and precipitate protein. Quenched samples were maintained on ice. The quenched samples were centrifuged at 2000×g (3100 rpm) for 10 minutes at 4° C. 50 μL aliquots of the supernatants were removed and diluted with 100 μL Milli-Q water to reduce the % organic content prior to bioanalysis by LC-MS/MS. Peak areas corresponding to the test compound were recorded. The compound remaining was calculated by comparing the peak area at each time point to time zero. Data were analyzed and results were calculated using Microsoft Excel 2010.

[2] = Aqueous solubility in PBS pH 7.4; type: physicochemical; details: phosphate buffered saline, aqueous buffer, kinetic from dmso stock, PBS pH 7.4, room temperature
Method: The following procedure was used to determine the aqueous solubility of a test compound in phosphate buffered saline (PBS—NaCl 137 mM, KCl 2.7 mM, Na2HPO4 8.1 mM, KH2PO4 1.5 mM, pH 7.4) in 96-well plate format by HPLC-UV/VIS analysis. The test compound was prepared at 200 μM in PBS from a 10 mM DMSO stock solution. The final DMSO concentration was 2%. The PBS buffer samples were mixed thoroughly followed by incubation at room temperature for 24 h. At the end of the incubation, the PBS buffer samples were centrifuged and supernatants analyzed by HPLC. The aqueous solubility (μM) of the test compound in PBS was determined by comparing the peak area of the principal peak in the calibration standard (200 μM) with the peak area of the corresponding peak in each of the PBS samples. The range of the assay was approximately 0.5 μM to 200 μM. The reference compounds used in each assay were metoprolol, rifampicin, ketoconazole, phenytoin, haloperidol, simvastatin, diethylstilbestrol, and tamoxifen ranking from fully soluble (200 μM) to poorly soluble (<1 μM).

[3] = Plasma protein binding by equilibrium dialysis; type: in vitro ADME; details: both sexes, pooled plasma, pH 7.4, human plasma protein binding, read-out: PPB
Method: The following procedure was used to determine the plasma protein binding of a test compound in pooled plasma from human (mixed gender) via equilibrium dialysis in a 96-well plate format. The dialysate compartment was loaded with phosphate-buffered saline (pH 7.4) and the sample side was loaded with plasma spiked with the test compound at a concentration of 10 μM. After loading, samples were covered and incubated for 4 hours at 37° C. After incubation, each compartment was sampled, diluted with acetonitrile/buffer and centrifuged. The supernatants were analyzed by HPLC-MS/MS. The analyte peak areas obtained from HPLC-MS/MS analysis of each sample were used to calculate protein binding according to the following equation (Equation 4):
where: AREAp=Peak area of analyte in protein matrix; AREAb=Peak area of analyte in buffer. The amount measured in the plasma compartment included both free and bound drug, while that on the buffer side represented free drug only; the differences were used to calculate the percentage plasma protein bound. Three reference compounds were tested in each assay: acebutolol, quinidine and warfarin.

[4] = Determination of bioavailability in a dog; type: in vivo; details: plasma, male beagle dogs, IV 1 mg/kg vs oral gavage 5 mg/kg
Method: The following protocol was used to estimate the bioavailability of test compounds in a dog. Test compounds were formulated in vehicles compatible with intravenous and oral dosing. Test compounds were administered to male beagle dogs via an intravenous bolus at 1 mg/kg (1 mg/mL at a dose volume of 1 mL/kg) or via oral gavage at 5 mg/kg (1 mg/mL at a dose volume of 5 mL/kg). Blood samples were collected via the contralateral (to intravenous bolus) jugular vein or via other accessible vein, at various timepoints following administration out to 24 hours post dose. Plasma samples (EDTA) were obtained by centrifugation (2200×g for 10 minutes at 5° C.) and stored frozen ([…]) until analyzed for parent compound via LC/MS/MS. Pharmacokinetic parameters were estimated from the plasma concentration time data by standard non-compartmental methods utilizing standard analysis software. By comparing the area under the curve (AUC) for IV and PO administration estimates of oral bioavailability were determined.

Compound	half-life at 2 μM [1]	solubility at 24 h [2]	fraction unbound at 4 h, 10 μM [3]	bioavailability [4]
CN(C(=O)[C@@H]1[C@@H](Cc2ccnc(N)c2)C(=O)N1C(=O)N[C@@H](C1CCCCC1)C1CC1)c1ccncc1 [Compound 52]	< 1 h	> 100 µM	0.05 to 0.09	≤ 10%
CC[C@@H](NC(=O)N1C(=O)[C@H](Cc2ccnc(N)c2)[C@H]1C(=O)N(C)c1ccncc1)c1cccnc1 [Compound 59]	> 4 h	> 100 µM	< 0.5	11 to 30%
CC[C@@H](NC(=O)N1C(=O)[C@H](Cc2ccnc(N)c2)[C@H]1C(=O)N(C)c1ncccn1)c1cccnc1 [Compound 61]	2.02 to 4 h	> 100 µM	< 0.5	≤ 10%
CC[C@@H](NC(=O)N1C(=O)[C@H](Cc2ccnc(NC)c2)[C@H]1C(=O)N(C)c1ncccn1)C1CCCCC1 [Compound 80]	< 1 h	> 100 µM	< 0.05	> 30%
CC[C@@H](NC(=O)N1C(=O)[C@H](Cc2ccnc(N)c2)[C@H]1C(=O)N(C)c1ncccn1)c1ccccc1 [Compound 84]	1.02 to 2 h	> 100 µM	0.1 to 0.5	> 30%
CC[C@@H](NC(=O)N1C(=O)[C@H](Cc2cc(C)nc(N)c2)[C@H]1C(=O)N(C)c1ccccc1)C1CCCCC1 [Compound 91]	1.02 to 2 h	> 100 µM	0.05 to 0.09	> 30%

Other lines, results leading:

half-life at 2 μM [1]	solubility at 24 h [2]	fraction unbound at 4 h, 10 μM [3]	bioavailability [4]	Compound
2.02 to 4 h	> 100 µM	0.1 to 0.5	> 30%	CC[C@@H](NC(=O)N1C(=O)[C@H](Cc2ccnc(N)c2)[C@H]1C(=O)N(C)c1ccncc1)c1ccccc1 [Compound 42]
2.02 to 4 h	> 100 µM	< 0.05	> 30%	CC[C@@H](NC(=O)N1C(=O)[C@H](Cc2ccnc(N)c2)[C@H]1C(=O)N(C)c1ccncc1)c1cccc(C)c1 [Compound 87]
2.02 to 4 h	> 100 µM	< 0.05	> 30%	CC[C@@H](NC(=O)N1C(=O)[C@H](Cc2ccnc(N)c2)[C@H]1C(=O)N(C)c1ccncc1)c1cccc(Cl)c1 [Compound 90]
